Here are results for 9 compounds from US8884022B2, “Inhibition of bacterial biofilms with aryl carbamates” (North Carolina State University, priority 2010, dated 2014).

The subject of series [1] is S. aureus strain ATCC 29213. In words: Biofilm inhibition, crystal violet assay. It counts as cell-based. Conditions: for biofilm inhibition activity (in words): 29213, 200 μM; for IC50: Staphylococcus aureus, ATCC29213, S. aureus ATCC 29213. Here is the method:
(§1) Given the potency of our lead compounds toward inhibiting MRSA biofilms, we next explored their activity against various other S. aureus strains. […] IC50 values were determined for each compound against each of the S. aureus strains.
(§2) Procedure to Determine the Inhibitory Effect of Test Compounds.
(§3) Inhibition assays were performed by taking an overnight culture of bacterial strain and subculturing it at an OD600 of 0.01 into the medium. Stock solutions of predetermined concentrations of the test compound were then made in the medium. These stock solutions were aliquoted (100 μL) into the wells of the 96-well PVC microtiter plate. Sample plates were then wrapped in GLAD Press n'Seal® followed by an incubation under stationary conditions for 24 h at 37° C. After incubation, the medium was discarded from the wells and the plates were washed thoroughly with water. Plates were then stained with 100 μL of 0.1% solution of crystal violet (CV) and then incubated at ambient temperature for 30 min. Plates were washed with water again and the remaining stain was solubilized with 200 μL of 95% ethanol. A sample of 125 μL of solubilized CV stain from each well was transferred to the corresponding wells of a polystyrene microtiter dish. Biofilm inhibition was quantitated by measuring the OD540 of each well in which a negative control lane wherein no biofilm was formed served as a background and was subtracted out.

Another series concerns MRSA. In words: Biofilm inhibition, crystal violet assay. It counts as cell-based, methicillin-resistant S. aureus. Conditions: for biofilm inhibition activity (in words) / inhibition at 200 µM / IC50: MRSA; for inhibition at 200 µM / IC50: Staphylococcus aureus; for inhibition at 200 µM: read-out: % Inhibition of biofilm formation; for IC50: concentration that inhibits 50% of biofilm formation. The procedure: as §2, §3

Series [2] concerns red blood cell (difibrinated sheep blood). In words: Red blood cell hemolysis assay. Conditions: up to the highest concentration tested (1.2 mM). It counts as cell-based. Here is the method: This was assessed using a red blood cell hemolysis assay using difibrinated sheep blood.
Red Blood Cell Hemolysis Assay.
Hemolysis assays were performed on mechanically difibrinated sheep blood (Hemostat Labs: DSB100). 1.5 mL of blood was placed into a microcentrifuge tube and centrifuged at 10000 rpm for ten minutes. The supernatant was removed and then the cells were resuspended with 1 mL of phosphate-buffered saline (PBS). The suspension was centrifuged, the supernatant was removed and cells resuspended two more times. The final cell suspension was then diluted tenfold. Test compound solutions were made in PBS in small culture tubes and then added to aliquots of the tenfold suspension dilution. PBS alone was used as a negative control and as a zero hemolysis marker whereas a 1% Triton X sample was used as a positive control and the 100% lysis marker. Samples were then placed in an incubator at 37° C. while being shaken at 200 rpm for one hour. After one hour, the samples were transferred to microcentrifuge tubes and then centrifuged at 10000 rpm for ten minutes. The resulting supernatant was diluted by a factor of 40 in distilled water. The absorbance of the supernatant was measured with a UV spectrometer at a 540 nm wavelength.

The next series relates to E. coli. In words: Biofilm inhibition, crystal violet assay. It counts as cell-based. Conditions: for inhibition at 200 µM / IC50: Escherichia coli; for inhibition at 200 µM: read-out: % Inhibition of biofilm formation; for IC50: concentration that inhibits 50% of biofilm formation. The procedure: as §2, §3
Series [3] relates to S. aureus strain ATCC 25923. In words: Biofilm inhibition, crystal violet assay. It counts as cell-based. The conditions noted are these: Staphylococcus aureus, ATCC25923; S. aureus ATCC 25923. Here is the method:
as §1, §2, §3

Series [4] has as its system S. aureus strain ATCC 29740. In words: Biofilm inhibition, crystal violet assay. It counts as cell-based. The conditions noted are these: Staphylococcus aureus, ATCC29740; S. aureus ATCC 29740. The procedure: as §1, §2, §3
The subject of series [5] is R. salexigens. Conditions: reported by Yamada et al.; cited from earlier work.
The next series relates to S. epidermidis. In words: Biofilm inhibition, crystal violet assay. It counts as cell-based. Conditions: 200 μM. The procedure:
as §2, §3

The test system of another series is VRE. In words: Biofilm inhibition, crystal violet assay. It counts as cell-based, vancomycin-resistant Enterococcus faecium. The conditions noted are these: 200 μM. The procedure:
as §2, §3

The subject of the next series is MDRAB. In words: Biofilm inhibition, crystal violet assay. The conditions noted are these: 200 μM. It counts as cell-based, multi-drug resistant Acinetobacter baumannii. Here is the method: as §2, §3
Series [6] deals with R. salexigens. In words: Biofilm inhibition, crystal violet assay. It counts as cell-based, Rhodospirillum salexigens. The conditions noted are these: 200 μM. Here is the method: as §2, §3

As for `CC(C)[C@H]1CC[C@H](C)C[C@@H]1OC(=O)NCCc1ccccn1` [Compound 9k, (1S,2R,5S)-2-isopropyl-5-methylcyclohexyl 2-(pyridin-2-yl)ethylcarbamate], the melting point fell in the range of 57 to 59 °C. Also, in [1], the “biofilm inhibition activity (in words)” value is recorded as “identical antibiofilm properties as their enantiomers”. The “biofilm inhibition activity (in words)” value in the series with MRSA (200 μM) is reported as “identical antibiofilm properties as their enantiomers”.

In turn, `CC(C)CCC[C@@H](C)C1CCC2[C@@H]3CC=C4C[C@@H](OC(=O)N5CCc6ccccc65)CC[C@]4(C)[C@H]3CC[C@]12C` (stereo partly shown) registered a melting point of 142 to 145 °C.

`COC1CC(C)CCC1C(C)C` (single isomer, unassigned; (-)) [(−)-menthol methyl ether, reference compound]: the “biofilm inhibition activity (in words)” value (in [1]; with MRSA (200 μM)) was “completely inactive” in each case.

With `CC(C)[C@@H]1CC[C@@H](C)C[C@H]1OC(=O)NCCc1ccccn1` [Compound 9a, (1R,2S,5R)-2-isopropyl-5-methylcyclohexyl 2-(pyridin-2-yl)ethylcarbamate], the melting point lay in the range of 59 to 63 °C. Besides, the “red blood cell lysis” value in [2] is recorded as “no red blood cell lysis”. In addition, the inhibition at 200 µM in the series with E. coli (200 μM) was above 80%. For the same compound, half-maximal inhibition with E. coli (IC50) required 34.6 µM. In series [3], this compound came in with an IC50 of 19.7 µM. This compound showed an IC50 in series [1] of 124 µM. Also, in series [4], 82.2 µM corresponded to half-maximal inhibition (IC50). Moreover, in the series with MRSA (200 μM), the inhibition at 200 µM is above 90%. Moreover, half-maximal inhibition in the series on MRSA (IC50) was put at 4.87 µM.

The compound `CC(C)CCC[C@@H](C)C1CCC2[C@@H]3CC=C4C[C@@H](OC(=O)NCCc5ccc(N)cc5)CC[C@]4(C)[C@H]3CC[C@]12C` (stereo partly shown) showed a melting point of 135 to 139 °C.

As to `CC1CCC(C(C)C)C(O)C1` (single isomer, unassigned; (-)) [(−)-menthol, reference compound], the “biofilm inhibition activity (in words)” value (in series [1]; in the series with MRSA (200 μM)) was “completely inactive” throughout.

As to `CC(C)[C@@H]1CC[C@@H](C)C[C@H]1OC(=O)NCCc1ccc(N)cc1` [Compound 8a, (1R,2S,5R)-2-isopropyl-5-methylcyclohexyl 4-aminophenethylcarbamate], the “red blood cell lysis” value in [2] was “no red blood cell lysis”. Also, the IC50 came to 71.9 µM in series [3], 21.2 µM in series [1], 24.3 µM in series [4] and 49.8 µM in the series on MRSA. Besides, the inhibition at 200 µM with MRSA (200 μM) was above 90%.

Turning to `CC(C)[C@@H]1CC[C@@H](C)C[C@H]1OC(=O)NCCn1nccn1` [Compound 5a, (1R,2S,5R)-2-isopropyl-5-methylcyclohexyl 2-(2H-1,2,3-triazol-2-yl)ethylcarbamate], the inhibition at 200 µM in the series on E. coli (200 μM) was above 80%. In the series with E. coli, this compound yielded an IC50 of 28.3 µM.

Turning to `CCOC(=O)NCCc1ccccc1` [Compound 2d, ethyl N-(2-phenethyl) carbamate], in the series with R. salexigens [5], the “antibiofilm activity reported in the literature” value was “moderate antibiofilm activity”. Further, in series [2], the “red blood cell lysis” value is given as “no red blood cell lysis”. The “% Inhibition of biofilm formation” value is 40.8% in the series with E. coli (200 μM); 63.1% with S. epidermidis; 80.2% in the series on VRE; 52.0% in the series with MDRAB; 59.7% with R. salexigens [6]; 68.1% in the series on MRSA (200 μM).
